According to patent publication US10967078B2, “Radiolabelled mGluR2 PET ligands” (Janssen Pharmaceutica NV, priority 2014, dated 2021):

Key:
[1] = Biodistribution studies in normal female Wistar rats; format: in vivo, rat; conditions: for % ID blood / SUV blood / % ID bone / SUV bone / % ID carcass / % ID cerebellum / SUV cerebellum / SUV cerebrum + cerebellum / % ID cerebrum total / % ID cortex / SUV cortex / % ID heart / % ID hippocampus / SUV hippocampus / % ID intestines / % ID kidneys / % ID liver / % ID lungs / % ID muscle / SUV muscle / % ID rest of cerebrum / SUV rest of cerebrum / % ID spleen + pancreas / % ID stomach / % ID striatum / SUV striatum / % ID urine / SUV whole cerebrum: mean n=3; for SUV cerebrum + cerebellum / Total brain uptake: cerebrum + cerebellum; for Total brain uptake: n=3
Method: High-performance liquid chromatography (HPLC) analysis was performed on a LaChrom Elite® HPLC system (Hitachi, Armstadt, Germany) connected to a UV spectrometer. For the analysis of radiolabeled compounds, the HPLC eluate, after passage through the UV detector, was led over a shielded 3-inch NaI(Tl) scintillation detector connected to a single channel analyser (Gabi box, Raytest, Straubenhardt, Germany). The output signal was recorded and analysed using a GINA Star data acquisition system (Raytest, Straubenhardt, Germany). Radioactivity in samples of biodistribution studies was quantified using an automated gamma counter equipped with a 3-inch NaI(Tl) well crystal coupled to a multichannel analyser (Wallac 2480 Wizard, Wallac, Turku, Finland). Results were corrected for background radiation, physical decay and counter dead time. Animals were housed in individually ventilated cages in a thermoregulated (˜22° C.), humidity-controlled facility under a 12 h/12 h light/dark cycle with access to food and water ad libitum. All animal experiments were conducted according to the Belgian code of practice for the care and use of animals, after approval from the local University Ethics Committee for Animals.
Biodistribution studies of [^11C]-2 and [^11C]-1 were carried out in healthy female Wister rats (body weight 185-220 g) at 2 min, 30 min and 60 min post injection (p.i.) (n=3/time point). Rats were injected with about 18 MBq of the tracer via a tail vein under anesthesia (2.5% isoflurane in O2 at 1 L/min flow rate) and sacrificed by decapitation at the above specified time points. Blood and major organs were collected in tared tubes and weighed. The radioactivity in blood, organs and other body parts was measured using an automated gamma counter. For calculation of total blood radioactivity, blood mass was assumed to be 7% of the body mass. For calculation of total muscle and total bone radioactivity, muscle and bone mass were assumed to be 40% and 12% of the body mass, respectively.

[2] = target: T1, mGluR2 (Rattus norvegicus, UniProt P31421); assay: In vitro autoradiography binding on normal female Wistar rat brain sections; conditions: in words
T1 construct: horizontal sections of mGluR2 KO and WT mouse brain and of normal female Wistar rat brain; from tissue; host or cells: normal female Wistar rat brain sections, 20 µm
Method: (§1) In vitro autoradiography studies were performed on horizontal sections of mGluR2 KO and WT mouse brain and of normal female Wistar rat brain (20 μm). The sections were preincubated in 50 mM Tris-HCl (MgCl2 2 mM, CaCl2 2 mM; pH 7.0) for 10 min (two times) at room temperature and dried. Next, the brain sections were incubated with tracer [^11C]-2, [^11C]-5, [^11C]-4, [^11C]-1 or [^18F]-3 diluted in the same Tris-HCl buffer as used for the preincubation additionally containing 0.1% BSA or with this tracer solution in the presence of 10 μM Co. No. 2 or Co. No. 1. The mouse brain sections were incubated with 17 kBq of carbon-11 labeled tracer and 1.7 kBq of fluorine-18 labeled tracer. For the rat brain sections this was 44 kBq of carbon-11 labeled tracer and 0.44 kBq of fluorine-18 labeled tracer. After 30 min of incubation, the brain sections were washed three times for 5 min in ice-cold Tris-HCl 50 mM ((MgCl2 2 mM, CaCl2 2 mM; pH 7.0+0.1% BSA buffer). After a quick dip in purified ice-cold water, the slides were dried. Autoradiograms were obtained by exposing the slides overnight to a high-performance phosphor storage screen (super-resolution screen; Perkin Elmer, Waltham, USA). The screens were read using a Cyclone Plus system (Perkin Elmer) and analysed using Optiquant software (Perkin Elmer). The radioactivity concentration in the autoradiograms was expressed in digital light units (DLU)/mm^2.
(§2) To obtain additional information on the specificity of the tracer binding to mGluR2, in vitro autoradiography binding studies were performed on mGluR2 KO and WT mouse brain sections and on normal rat brain sections in presence or absence of a high concentration of mGluR2 NAM compounds (Co. No. 1 or Co. No. 2).

[3] = target: T2, mGluR2 (Mus musculus, UniProt Q14BI2); assay: In vitro autoradiography binding on mGluR2 KO and WT mouse brain sections
T2 construct: horizontal sections of mGluR2 KO and WT mouse brain and of normal female Wistar rat brain; from tissue; host or cells: mouse brain sections (WT and mGluR2 KO), 20 µm
Method: as §1, §2

[4] = WT mouse cortex, block with 10 μM Co. No. 1
[5] = WT mouse striatum, block with 10 μM Co. No. 1

T2 sequence (Q14BI2 19-872): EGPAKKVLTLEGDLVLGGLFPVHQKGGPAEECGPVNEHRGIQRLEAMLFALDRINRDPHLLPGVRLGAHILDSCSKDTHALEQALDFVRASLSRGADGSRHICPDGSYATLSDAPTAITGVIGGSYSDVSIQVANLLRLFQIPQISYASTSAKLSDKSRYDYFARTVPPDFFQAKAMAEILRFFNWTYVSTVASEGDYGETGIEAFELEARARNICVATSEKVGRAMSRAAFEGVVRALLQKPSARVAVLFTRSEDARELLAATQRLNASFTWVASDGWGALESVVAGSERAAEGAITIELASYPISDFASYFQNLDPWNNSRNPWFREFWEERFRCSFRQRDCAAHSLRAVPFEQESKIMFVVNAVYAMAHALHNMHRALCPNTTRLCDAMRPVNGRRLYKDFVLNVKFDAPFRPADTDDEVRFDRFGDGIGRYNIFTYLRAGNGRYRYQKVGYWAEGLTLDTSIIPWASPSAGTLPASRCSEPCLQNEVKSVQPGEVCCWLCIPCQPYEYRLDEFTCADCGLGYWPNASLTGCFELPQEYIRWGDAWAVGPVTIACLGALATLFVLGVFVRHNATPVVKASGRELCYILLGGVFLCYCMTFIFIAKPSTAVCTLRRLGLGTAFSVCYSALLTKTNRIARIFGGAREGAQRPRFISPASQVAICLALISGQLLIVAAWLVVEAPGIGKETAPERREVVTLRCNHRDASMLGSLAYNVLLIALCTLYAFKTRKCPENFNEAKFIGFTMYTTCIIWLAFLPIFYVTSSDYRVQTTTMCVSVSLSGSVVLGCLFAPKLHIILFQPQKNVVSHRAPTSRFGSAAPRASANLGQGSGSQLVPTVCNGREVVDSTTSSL
T1 sequence (P31421 19-872): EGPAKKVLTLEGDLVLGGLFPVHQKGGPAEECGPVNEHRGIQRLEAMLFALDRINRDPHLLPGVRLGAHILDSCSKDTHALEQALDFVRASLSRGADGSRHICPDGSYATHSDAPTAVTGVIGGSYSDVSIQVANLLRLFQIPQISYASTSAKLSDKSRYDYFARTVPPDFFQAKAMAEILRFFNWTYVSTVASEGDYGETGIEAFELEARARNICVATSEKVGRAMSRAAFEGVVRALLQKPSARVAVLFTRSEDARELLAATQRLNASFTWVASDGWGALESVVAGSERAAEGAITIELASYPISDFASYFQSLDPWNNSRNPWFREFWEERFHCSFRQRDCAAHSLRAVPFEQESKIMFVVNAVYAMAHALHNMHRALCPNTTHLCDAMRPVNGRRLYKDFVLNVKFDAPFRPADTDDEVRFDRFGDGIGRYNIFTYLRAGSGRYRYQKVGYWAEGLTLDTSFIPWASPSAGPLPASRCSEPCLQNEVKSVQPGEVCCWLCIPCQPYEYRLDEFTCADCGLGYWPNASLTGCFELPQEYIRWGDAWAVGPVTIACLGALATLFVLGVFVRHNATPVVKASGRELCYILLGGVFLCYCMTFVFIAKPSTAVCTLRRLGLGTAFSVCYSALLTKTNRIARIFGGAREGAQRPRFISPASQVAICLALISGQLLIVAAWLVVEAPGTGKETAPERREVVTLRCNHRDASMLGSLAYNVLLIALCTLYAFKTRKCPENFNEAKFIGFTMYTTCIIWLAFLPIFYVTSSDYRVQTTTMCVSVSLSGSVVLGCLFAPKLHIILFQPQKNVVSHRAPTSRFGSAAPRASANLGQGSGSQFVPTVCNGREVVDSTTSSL

SMILES: C[C@H]1CN(c2ccc(C(F)(F)F)cc2)C(=O)c2c(-c3ccnc([11CH3])c3)cnn21 [[^11C]-1]
- 2 min - to- 30 min wash-out ratio ([1]; blood): 1.86
- % ID blood ([1]; blood, 2 min p.i.): 6.3 % ID
- SUV blood ([1]; blood, 2 min p.i.): 0.90 SUV
- % ID blood ([1]; blood, 30 min p.i.): 3.4 % ID
- SUV blood ([1]; blood, 30 min p.i.): 0.49 SUV
- 2 min - to- 30 min wash-out ratio ([1]; bone): 2.11
- % ID bone ([1]; bone, 2 min p.i.): 5.7 % ID
- SUV bone ([1]; bone, 2 min p.i.): 0.48 SUV
- % ID bone ([1]; bone, 30 min p.i.): 2.7 % ID
- SUV bone ([1]; bone, 30 min p.i.): 0.23 SUV
- % ID carcass ([1]; 2 min p.i.): 43.4 % ID
- % ID carcass ([1]; 30 min p.i.): 61.5 % ID
- 2 min - to- 30 min wash-out ratio ([1]; cerebellum): 2.90
- % ID cerebellum ([1]; cerebellum, 2 min p.i.): 0.340 % ID
- SUV cerebellum ([1]; cerebellum, 2 min p.i.): 2.60 SUV
- % ID cerebellum ([1]; cerebellum, 30 min p.i.): 0.120 % ID
- SUV cerebellum ([1]; cerebellum, 30 min p.i.): 0.90 SUV
- SUV cerebrum + cerebellum ([1]; 2 min p.i.): 2.82 SUV
- Total brain uptake ([1]; 2 min p.i.): 2.0 % ID
- Total brain uptake ([1]; 2 min p.i., listed as [^11C-1]): 2.01 ± 0.24 % ID
- SUV cerebrum + cerebellum ([1]; 30 min p.i.): 0.95 SUV
- Total brain uptake ([1]; 30 min p.i.): 0.69 ± 0.05 % ID
- % ID cerebrum total ([1]; 2 min p.i.): 1.643 % ID
- % ID cerebrum total ([1]; 30 min p.i.): 0.567 % ID
- 2 min - to- 30 min wash-out ratio ([1]; cortex): 3.22
- % ID cortex ([1]; cortex, 2 min p.i.): 0.131 % ID
- SUV cortex ([1]; cortex, 2 min p.i.): 3.51 SUV
- % ID cortex ([1]; cortex, 30 min p.i.): 0.039 % ID
- SUV cortex ([1]; cortex, 30 min p.i.): 1.09 SUV
- % ID heart ([1]; 2 min p.i.): 0.6 % ID
- % ID heart ([1]; 30 min p.i.): 0.5 % ID
- 2 min - to- 30 min wash-out ratio ([1]; hippocampus): 2.76
- % ID hippocampus ([1]; hippocampus, 2 min p.i.): 0.083 % ID
- SUV hippocampus ([1]; hippocampus, 2 min p.i.): 2.41 SUV
- % ID hippocampus ([1]; hippocampus, 30 min p.i.): 0.031 % ID
- SUV hippocampus ([1]; hippocampus, 30 min p.i.): 0.87 SUV
- % ID intestines ([1]; 2 min p.i.): 10.1 % ID
- % ID intestines ([1]; 30 min p.i.): 11.1 % ID
- % ID kidneys ([1]; 2 min p.i.): 2.9 % ID
- % ID kidneys ([1]; 30 min p.i.): 1.6 % ID
- % ID liver ([1]; 2 min p.i.): 31.2 % ID
- % ID liver ([1]; 30 min p.i.): 14.2 % ID
- % ID lungs ([1]; 2 min p.i.): 2.1 % ID
- % ID lungs ([1]; 30 min p.i.): 0.9 % ID
- 2 min - to- 30 min wash-out ratio ([1]; muscle): 0.61
- % ID muscle ([1]; muscle, 2 min p.i.): 15.1 % ID
- SUV muscle ([1]; muscle, 2 min p.i.): 0.38 SUV
- % ID muscle ([1]; muscle, 30 min p.i.): 24.9 % ID
- SUV muscle ([1]; muscle, 30 min p.i.): 0.62 SUV
- 2 min - to- 30 min wash-out ratio ([1]; rest of cerebrum): 3.00
- % ID rest of cerebrum ([1]; rest of cerebrum, 2 min p.i.): 1.286 % ID
- SUV rest of cerebrum ([1]; rest of cerebrum, 2 min p.i.): 2.83 SUV
- % ID rest of cerebrum ([1]; rest of cerebrum, 30 min p.i.): 0.445 % ID
- SUV rest of cerebrum ([1]; rest of cerebrum, 30 min p.i.): 0.94 SUV
- % ID spleen + pancreas ([1]; 2 min p.i.): 1.9 % ID
- % ID spleen + pancreas ([1]; 30 min p.i.): 1.2 % ID
- % ID stomach ([1]; 2 min p.i.): 2.8 % ID
- % ID stomach ([1]; 30 min p.i.): 6.4 % ID
- 2 min - to- 30 min wash-out ratio ([1]; striatum): 2.68
- % ID striatum ([1]; striatum, 2 min p.i.): 0.143 % ID
- SUV striatum ([1]; striatum, 2 min p.i.): 2.58 SUV
- % ID striatum ([1]; striatum, 30 min p.i.): 0.052 % ID
- SUV striatum ([1]; striatum, 30 min p.i.): 0.97 SUV
- % ID urine ([1]; 2 min p.i.): 0.1 % ID
- % ID urine ([1]; 30 min p.i.): 0.1 % ID
- 2 min - to- 30 min wash-out ratio ([1]; whole cerebrum): 2.98
- SUV whole cerebrum ([1]; whole cerebrum, 2 min p.i.): 2.83 SUV
- SUV whole cerebrum ([1]; whole cerebrum, 30 min p.i.): 0.95 SUV
- total binding to normal rat brain sections [2]: less pronounced
- Cortex WT (TB)/cortex WT (block Co. No. 1) [3, 4]: ~21.5
- spec binding, cortex WT [3, 4]: (~95% spec
- Striatum WT (TB)/striatum WT (block Co. No. 1) [3, 5]: ~11.8
- spec binding, striatum WT [3, 5]: (~92% specific
- difference in tracer binding to WT and mGluR2 KO mouse brain sections ([3]; in words): significant difference
- Cortex WT (TB)/Cortex KO (TB) ([3]; total binding ratio, WT versus mGluR2 KO mouse brain sections, cortex): ~7.1
- Striatum WT (TB)/Striatum KO (TB) ([3]; total binding ratio, WT versus mGluR2 KO mouse brain sections, striatum): ~3.8
